In PubChem BioAssay (NCI):
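Dose response: 5 concentrations. Exposure: 48 h. Format: 96-well plates. Endpoint: linear interpolation; highest concentration if not reached. Abbreviation: GI50, concentration required for 50% inhibition of growth. TGI marks complete inhibition of growth.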

Key:
Test in all cases: NCI-60 cell line screen, 48 h
SF-268 CNS = tested on: SF-268 CNS
UACC-62 melanoma = tested on: UACC-62 melanoma
SK-OV-3 ovarian = tested on: SK-OV-3 ovarian
HL-60(TB) leukemia = tested on: HL-60(TB) leukemia
SN12C renal = tested on: SN12C renal
ACHN renal = tested on: ACHN renal
SF-539 CNS = tested on: SF-539 CNS
COLO 205 colon = tested on: COLO 205 colon
HCT-15 colon = tested on: HCT-15 colon
MCF7 breast = tested on: MCF7 breast
MDA-MB-231 breast = tested on: MDA-MB-231 breast
CCRF-CEM leukemia = tested on: CCRF-CEM leukemia
SF-295 CNS = tested on: SF-295 CNS
U251 CNS = tested on: U251 CNS
MDA-MB-468 breast = tested on: MDA-MB-468 breast
BT-549 breast = tested on: BT-549 breast
MALME-3M melanoma = tested on: MALME-3M melanoma
NCI-H226 lung = tested on: NCI-H226 lung
MOLT-4 leukemia = tested on: MOLT-4 leukemia
OVCAR-5 ovarian = tested on: OVCAR-5 ovarian
RPMI-8226 leukemia = tested on: RPMI-8226 leukemia
A549 NSCLC = tested on: A549 NSCLC
CAKI-1 renal = tested on: CAKI-1 renal
SK-MEL-5 melanoma = tested on: SK-MEL-5 melanoma
HOP-62 NSCLC = tested on: HOP-62 NSCLC
KM12 colon = tested on: KM12 colon
786-0 renal = tested on: 786-0 renal
HT29 colon = tested on: HT29 colon
HCT-116 colon = tested on: HCT-116 colon
M14 melanoma = tested on: M14 melanoma
LOX IMVI melanoma = tested on: LOX IMVI melanoma
SNB-19 CNS = tested on: SNB-19 CNS
EKVX NSCLC = tested on: EKVX NSCLC
NCI-H522 lung = tested on: NCI-H522 lung
HS 578T breast = tested on: HS 578T breast
MDA-MB-435 = tested on: MDA-MB-435
SK-MEL-28 melanoma = tested on: SK-MEL-28 melanoma
DU-145 prostate = tested on: DU-145 prostate
TK-10 renal = tested on: TK-10 renal
NCI-H460 lung = tested on: NCI-H460 lung
OVCAR-8 ovarian = tested on: OVCAR-8 ovarian
SK-MEL-2 melanoma = tested on: SK-MEL-2 melanoma
SNB-75 CNS = tested on: SNB-75 CNS
SR leukemia = tested on: SR leukemia
NCI-H23 lung = tested on: NCI-H23 lung
UO-31 renal = tested on: UO-31 renal
OVCAR-4 ovarian = tested on: OVCAR-4 ovarian
K-562 leukemia = tested on: K-562 leukemia
SW-620 colon = tested on: SW-620 colon
RXF 393 renal = tested on: RXF 393 renal
NCI/ADR-RES ovarian = tested on: NCI/ADR-RES ovarian
HCC-2998 colon = tested on: HCC-2998 colon
PC-3 prostate = tested on: PC-3 prostate
A498 renal = tested on: A498 renal
OVCAR-3 ovarian = tested on: OVCAR-3 ovarian
IGROV1 ovarian = tested on: IGROV1 ovarian
HOP-92 NSCLC = tested on: HOP-92 NSCLC
T-47D breast = tested on: T-47D breast
UACC-257 melanoma = tested on: UACC-257 melanoma

## CNc1nc2ccccc2n2c(-c3ccc(O)c(O)c3)cnc12
SF-268 CNS
  GI50: < 0.0226 µM
  TGI: 54.7 µM
UACC-62 melanoma
  GI50: < 0.01 µM
  TGI: 5.09 µM
SK-OV-3 ovarian
  GI50: 0.191 µM
  TGI: 13.6 µM
HL-60(TB) leukemia
  GI50: < 0.01 µM
  TGI: < 0.01 µM
SN12C renal
  GI50: < 0.01 µM
  TGI: 10.7 µM
ACHN renal
  GI50: < 0.01 µM
  TGI: 20.9 µM
SF-539 CNS
  GI50: < 0.01 µM
  TGI: < 0.01 µM
COLO 205 colon
  GI50: 0.128 µM
  TGI: 1.56 µM
HCT-15 colon
  GI50: < 0.01 µM
  TGI: 31.3 µM
MCF7 breast
  GI50: < 0.01 µM
  TGI: > 38.5 µM
MDA-MB-231 breast
  GI50: < 0.01 µM
  TGI: < 0.0149 µM
CCRF-CEM leukemia
  GI50: < 0.01 µM
  TGI: 1.77 µM
SF-295 CNS
  GI50: < 0.011 µM
  TGI: 1.74 µM
U251 CNS
  GI50: < 0.01 µM
  TGI: > 39.2 µM
MDA-MB-468 breast
  GI50: < 0.01 µM
  TGI: < 0.01 µM
BT-549 breast
  GI50: < 0.01 µM
  TGI: 1.16 µM
MALME-3M melanoma
  GI50: < 0.01 µM
  TGI: 19.3 µM
NCI-H226 lung
  GI50: 1.41 µM
  TGI: 37.9 µM
MOLT-4 leukemia
  GI50: < 0.01 µM
  TGI: 18.9 µM
OVCAR-5 ovarian
  GI50: < 0.01 µM
  TGI: 23.3 µM
RPMI-8226 leukemia
  GI50: < 0.01 µM
  TGI: 6.6 µM
A549 NSCLC
  GI50: < 0.01 µM
  TGI: > 35 µM
CAKI-1 renal
  GI50: < 0.01 µM
  TGI: 22.2 µM
SK-MEL-5 melanoma
  GI50: < 0.01 µM
  TGI: 0.0142 µM
HOP-62 NSCLC
  GI50: < 0.01 µM
  TGI: 26.1 µM
KM12 colon
  GI50: < 0.01 µM
  TGI: 26.3 µM
786-0 renal
  GI50: 0.113 µM
  TGI: 21.5 µM
HT29 colon
  GI50: 0.0367 µM
  TGI: 1.64 µM
HCT-116 colon
  GI50: < 0.01 µM
  TGI: 0.963 µM
M14 melanoma
  GI50: < 0.01 µM
  TGI: 2.83 µM
LOX IMVI melanoma
  GI50: < 0.01 µM
  TGI: 13.7 µM
SNB-19 CNS
  GI50: < 0.01 µM
  TGI: 31.1 µM
EKVX NSCLC
  GI50: < 0.0207 µM
  TGI: 32.7 µM
NCI-H522 lung
  GI50: < 0.01 µM
  TGI: < 0.01 µM
HS 578T breast
  GI50: < 0.01 µM
  TGI: 8.13 µM
MDA-MB-435
  GI50: < 0.01 µM
  TGI: 1.29 µM
SK-MEL-28 melanoma
  GI50: < 0.01 µM
  TGI: 23.3 µM
DU-145 prostate
  GI50: < 0.01 µM
  TGI: > 33.9 µM
TK-10 renal
  GI50: 7.98 µM
  TGI: 44.3 µM
NCI-H460 lung
  GI50: < 0.01 µM
  TGI: 10.5 µM
OVCAR-8 ovarian
  GI50: < 0.01 µM
  TGI: 0.507 µM
SK-MEL-2 melanoma
  GI50: < 0.01 µM
  TGI: 5.75 µM
SNB-75 CNS
  GI50: < 0.01 µM
  TGI: 14.8 µM
SR leukemia
  GI50: < 0.01 µM
  TGI: > 34 µM
NCI-H23 lung
  GI50: < 0.01 µM
  TGI: 9.56 µM
UO-31 renal
  GI50: < 0.01 µM
  TGI: 15.9 µM
OVCAR-4 ovarian
  GI50: 0.475 µM
  TGI: > 78.8 µM
K-562 leukemia
  GI50: < 0.01 µM
  TGI: > 100 µM
SW-620 colon
  GI50: < 0.01 µM
  TGI: > 69.9 µM
RXF 393 renal
  GI50: < 0.01 µM
  TGI: 14.8 µM
NCI/ADR-RES ovarian
  GI50: < 0.01 µM
  TGI: < 0.01 µM
HCC-2998 colon
  GI50: < 0.01 µM
  TGI: 15 µM
PC-3 prostate
  GI50: < 0.01 µM
  TGI: 25.9 µM
A498 renal
  GI50: 20.7 µM
  TGI: 61.6 µM
OVCAR-3 ovarian
  GI50: < 0.01 µM
  TGI: 4.62 µM
IGROV1 ovarian
  GI50: < 0.01 µM
  TGI: 18.9 µM
HOP-92 NSCLC
  GI50: 0.17 µM
  TGI: 10.5 µM

## O=C1Nc2ccc(F)cc2/C1=C/c1cccc(OCc2ccccn2)c1
SF-268 CNS
  GI50: 17.1 µM
  TGI: 39.3 µM
UACC-62 melanoma
  GI50: 13.6 µM
  TGI: 27.7 µM
SK-OV-3 ovarian
  GI50: 18.6 µM
  TGI: 50 µM
HL-60(TB) leukemia
  GI50: 16.4 µM
  TGI: 39.3 µM
T-47D breast
  GI50: 15 µM
  TGI: 34 µM
SN12C renal
  GI50: 16.8 µM
  TGI: 34.4 µM
ACHN renal
  GI50: 16.4 µM
  TGI: 33.5 µM
SF-539 CNS
  GI50: 16.3 µM
  TGI: 30.4 µM
UACC-257 melanoma
  GI50: 14.4 µM
  TGI: 30.1 µM
COLO 205 colon
  GI50: 16.3 µM
  TGI: 31 µM
HCT-15 colon
  GI50: 16.5 µM
  TGI: 34.4 µM
MCF7 breast
  GI50: 12.1 µM
  TGI: 26.4 µM
CCRF-CEM leukemia
  GI50: 25.9 µM
  TGI: 71.8 µM
SF-295 CNS
  GI50: 16 µM
  TGI: 30.3 µM
U251 CNS
  GI50: 15.2 µM
  TGI: 33.3 µM
MDA-MB-468 breast
  GI50: 14.2 µM
  TGI: 29.3 µM
BT-549 breast
  GI50: 15 µM
  TGI: 30.1 µM
MALME-3M melanoma
  GI50: 17.5 µM
  TGI: 40.1 µM
NCI-H226 lung
  GI50: 15 µM
  TGI: 29.9 µM
MOLT-4 leukemia
  GI50: 17.5 µM
  TGI: 40 µM
OVCAR-5 ovarian
  GI50: 16 µM
  TGI: 31 µM
RPMI-8226 leukemia
  GI50: 17.3 µM
  TGI: 48 µM
A549 NSCLC
  GI50: 18.9 µM
  TGI: 59.9 µM
CAKI-1 renal
  GI50: 19.6 µM
  TGI: 55.5 µM
SK-MEL-5 melanoma
  GI50: 16.6 µM
  TGI: 30.5 µM
HOP-62 NSCLC
  GI50: 14.4 µM
  TGI: 30.8 µM
KM12 colon
  GI50: 19 µM
  TGI: 37.3 µM
786-0 renal
  GI50: 15 µM
  TGI: 29.7 µM
HT29 colon
  GI50: 17.5 µM
  TGI: 34.7 µM
HCT-116 colon
  GI50: 13.7 µM
  TGI: 28.5 µM
M14 melanoma
  GI50: 15.7 µM
  TGI: 31.5 µM
LOX IMVI melanoma
  GI50: 14.9 µM
  TGI: 29 µM
SNB-19 CNS
  GI50: 17.2 µM
  TGI: 33.2 µM
EKVX NSCLC
  GI50: 13 µM
  TGI: 26.9 µM
NCI-H522 lung
  GI50: 15.9 µM
  TGI: 33 µM
HS 578T breast
  GI50: 17.6 µM
  TGI: 63.3 µM
MDA-MB-435
  GI50: 18.5 µM
  TGI: 36.6 µM
SK-MEL-28 melanoma
  GI50: 18.4 µM
  TGI: 37.1 µM
DU-145 prostate
  GI50: 18.2 µM
  TGI: 33.5 µM
TK-10 renal
  GI50: 18.1 µM
  TGI: 32.5 µM
NCI-H460 lung
  GI50: 19.8 µM
  TGI: 44.4 µM
OVCAR-8 ovarian
  GI50: 16.1 µM
  TGI: 31.7 µM
SR leukemia
  GI50: 16.4 µM
  TGI: 42.6 µM
NCI-H23 lung
  GI50: 15 µM
  TGI: 28.8 µM
OVCAR-4 ovarian
  GI50: 22 µM
  TGI: 63.3 µM
K-562 leukemia
  GI50: 17.5 µM
  TGI: 57.3 µM
SW-620 colon
  GI50: 17.2 µM
  TGI: 36 µM
RXF 393 renal
  GI50: 13.3 µM
  TGI: 26.4 µM
NCI/ADR-RES ovarian
  GI50: 16.8 µM
  TGI: 39.3 µM
HCC-2998 colon
  GI50: 16.3 µM
  TGI: 30.3 µM
PC-3 prostate
  GI50: 18.7 µM
  TGI: 48.7 µM
A498 renal
  GI50: 54.3 µM
  TGI: > 100 µM
OVCAR-3 ovarian
  GI50: 15.2 µM
  TGI: 32.4 µM
IGROV1 ovarian
  GI50: 17 µM
  TGI: 36.2 µM
HOP-92 NSCLC
  GI50: 11.3 µM
  TGI: 36.3 µM
